Columns and labels:
[1] = tested on: differentiated SH-SY5Y human neuronal cells; assay: MTT assay: cytotoxicity of the substance alone (primary screen, no added insult); assay type: cell-based; conditions: for toxicity in primary screen / Cell Death (%) vs Vehicle Control: FIG. 1; for Cell Death (%) vs Vehicle Control: 15 μM, pre-screen
Description: (§1) Cell Culture and Differentiation: The SH-SY5Y human neuronal cell line was derived from neuroblastoma established from a metastatic bone tumor (patient with neuroblastoma). The cells were maintained in DMEM:F12 culture medium supplemented with 10% FBS and 1% Antibiotic-Antimycotic penicillin/streptomycin (growth medium) at 37° C. in a humidified atmosphere of 5% CO2. To induce neuronal differentiation of SH-SY5Y cells, culture media was replaced by a growth medium containing Retinoic Acid (RA) for 4-5 days at 37° C. in a humidified atmosphere of 5% CO2.
(§2) Compounds and Dosing Formulations: Selected cannabinoids: CBD, CBDA, CBC, CBG, CBGA, CBN, CBND and Δ^9-THC were procured from Cayman Chemicals and TRC. Ethanol (100%) was used as the solvent to prepare 1 and 10 mM stock solutions. Treatment concentrations for CBGA were prepared at 0.5 μM, 1.5 μM, 5 μM, 10 μM, 15 μM, 20 μM. Treatment concentrations for CBD, CBDA, CBC, CBN, CBND and Δ^9-THC were prepared at 0.5, 1.5, 5 and for CBG at 0.5 μM, 1.5 μM, 5 μM, 10 μM, 15 μM. Treatments were prepared directly in the control medium (DMEM:F12+5% FBS+1% Antibiotic-Antimycotic) by using appropriate stock solutions.
(§3) Evaluation of Cytotoxicity and Neuroprotection: Evaluation of cannabinoids neuroprotection and cytotoxicity on differentiated SH-SY5Y human neuronal cells was carried out by MTT (3-(4,5-dimethylthiazol-2-yl)-2,5-diphenyltetrazolium bromide) assay. Initially, cannabinoid cytotoxicity and neuroprotection were evaluated in a primary screen assay without the presence of cytotoxicity inducing insult agents. […] The Retinoic Acid (RA) differentiated SH-SY5Y neuronal cells were seeded onto 96-well plates (10,000 cells/well) in DMEM:F12 complete medium. Cells were differentiated for 4-5 days in the presence of RA.
(§4) MTT Assay: For the MTT assay, differentiated SH-SY5Y neuronal cells were treated with cannabinoids at various concentrations for 72 hrs in the presence of STSR at 75 nM, 100 nM, 150 nM and 200 nM or for 24 hrs in the presence of […] at 5 μM, respectively and processed to determine cytotoxicity. Briefly, 5 mg/mL of methylthiazolyldiphenyl-tetrazolium bromide (Sigma-Aldrich) stock solution was prepared in PBS. Following treatment of SH-SY5Y neuronal cells with cannabinoids for 72 hrs, the cells were incubated with 20 μL of MTT stock solution in 200 μL DMEM for 2 hrs at 37° C. Following subsequent washes with PBS, 200 μL of isopropanol was added to each well. The resulting change in color from dissolving formazan salt was immediately quantified using a spectrophotometer (BMG Labtech) at a wavelength of 570 nm. […] The results are illustrated in FIGS. 1-7.

[2] = tested on: differentiated SH-SY5Y human neuronal cells; assay: MTT assay: neuroprotection from Staurosporin (STSR) induced cytotoxicity; assay type: cell-based; conditions: for neuroprotection against STSR-induced cytotoxicity: 0.5 μM, 1.5 μM and 5 μM with STSR 75 nM, 72 hrs; for neuroprotection against STSR-induced cytotoxicity / Cell Death (%) vs STSR at 75 nM, significance: FIG. 3; for Cell Death (%) vs STSR at 75 nM, significance: 5 μM with STSR 75 nM, compared to STSR-alone, One-Way ANOVA
Description: as §1, §2, §3, §4

[3] = tested on: differentiated SH-SY5Y cells; assay: Immunocytochemistry of TuJ1 and neuronal morphology; assay type: cell-based, human; conditions: 5 μM, FIG. 14
Description: (§5) FIG. 14 Morphological characterization of CBGA, THC and CBN mediated changes in differentiated SH-SY5Y cells. SH-SY5Y cells were differentiated with RA (10 μM) for 5 days as indicated. (A) Representative confocal photomicrographs showing changes in the cellular distribution of Tuj1 in RA induced differentiated SH-SY5Y cells following treatment with CBGA, THC and CBN. (B) Histogram showing the effect of CBGA, CBN, THC on neurite length.

[4] = tested on: differentiated SH-SY5Y cells; assay: Neurite length / neuritogenesis in differentiated SH-SY5Y cells; assay type: cell-based, human; conditions: 24 hours post treatment, FIG. 14 (B)
Description: FIG. 12 provides representative photomicrographs illustrating CBGA mediated changes in neurite elongation and branching in differentiated SH-SY5Y cells in a dose dependent manner. […] FIG. 12 also provides a histogram showing gradual changes in neurite length following treatment with CBGA.
as §5

CB1R = assay: Changes in CB1 receptor expression and translocation; assay type: cell-based; conditions: CBGA 5 μM, 10 μM, dose-dependent; FIG. 11
Source text: FIG. 11 Changes in receptor expression.

[5] = tested on: differentiated SH-SY5Y human neuronal cells; assay: MTT assay: neuroprotection from Aβ1-42 induced cytotoxicity; assay type: cell-based
Description: as §1, §2, §3, §4

[6] = tested on: differentiated SH SY5Y cells treated with Aβ1-42; assay: Receptor antagonist study: reversal of CBGA mediated protection from Aβ toxicity; assay type: cell-based, human; conditions: CB2 antagonist at 1.5 μM (lowest concentration tested), with CBGA + Aβ1-42, FIG. 8
Description: FIG. 8 illustrates the effect of a CB2 antagonist has on the reversal of CBGA mediated protection of Aβ toxicity. The CB2 antagonist […] has a more prominent effect on the reversal of CBGA mediated protection. […] CB2 antagonist has significant effect on the reversal of CBGA mediated protection at lower concentration. p<0.0001 for Aβ compared to vehicle control. p<0.0001 for all groups compared to CBGA ([…])+Aβ.

BAX = assay: Western blot of BAX (pro-apoptotic marker); assay type: cell-based, human; conditions: Aβ1-42 (5 μM) alone, FIG. 9
Description: (§6) For Western blot analysis, control and the treated cells were harvested and lysed in cold lysis buffer (150 mM NaCl, 50 mM Tris-HCl, 1% Triton X-100, 0.1% SDS, 0.5% Sodium deoxycholate, and 1% protease-phosphatase inhibitor mixture). The supernatants were collected and protein concentrations were determined using Bio-Rad protein assay (Bio-Rad Laboratories). Whole cell lysates (10 μg) were subjected to 10% SDS-polyacrylamide electrophoresis and transferred to nitrocellulose membrane. The membranes were blocked with 5% skim milk in TBS-T (Tris-buffered saline with 0.05% Tween-20) for 1 h at RT and blotted overnight in the presence of monoclonal anti-mouse MAP2 (1:1000, Sigma, cat. no. M1406), Tau (1:1000, Invitrogen, cat. no. AHB0042), TUJI (1:5000, BioLegend, cat. no. MMS-435P), BAX (1:1000, Cell signaling, cat. no. 2772) and rabbit polyclonal total and phosphorylated BCL (1:1000, Cell signaling, antibodies #2827 and 2870). The membranes were washed and incubated for 1 h in RT with either horseradish peroxidase (HRP)-conjugated goat anti-mouse (1:2000) or goat anti-rabbit antibodies (1:2000) (Jackson Lab). The membranes were washed and developed using chemiluminescence detection kit (Millipore, Billerica, MA, USA) on Alpha Innotech FluorChem 8800. β-Actin or Vinculin was used as a loading control. […]

BCL2 = assay: Western blot of phosphorylated BCL2 (anti-apoptotic marker); assay type: cell-based, human; conditions: Aβ1-42 insult alone, FIG. 10
Description: as §6

[7] = tested on: differentiated SH-SY5Y cells; assay: Confocal immunofluorescence of MAP2 and neurite morphology; assay type: cell-based, human; conditions: Aβ1-42 at 5 μM alone, FIG. 16
Description: SH-SY5Y cells were differentiated with RA (10 μM) for 5 days as indicated.
Accordingly, the effect of CBGA on the expression of MAP-2 was tested.

Molecule	toxicity in primary screen ([1]; 5 μM to 15 μM)	Cell Death (%) vs Vehicle Control [1]	neuroprotection against STSR-induced cytotoxicity [2]	Cell Death (%) vs STSR at 75 nM, significance [2]	toxicity in primary screen ([1]; about 0.5 μM to 1.5 μM)	further results
C=C(C)c1ccc(C)cc1-c1c(O)cc(CCCCC)cc1O [CBND]	high levels of toxicity	promote cell death	did not protect	statistically significant cytotoxicity	–	–
CCCCCc1cc(O)c2c(c1)OC(C)(C)c1ccc(C)cc1-2 [CBN, cannabinol]	high levels of toxicity	promote cell death	did not protect	statistically significant cytotoxicity	–	neuronal morphology and neurite outgrowth, TuJ1 staining [3]: loss of neurite outgrowth and elongation; neurite length [4]: significantly decreased the neurite length; CB1R expression and translocation (CB1R): did not alter the expression of CB1R
CCCCCc1cc(O)c(C/C=C(\C)CCC=C(C)C)c(O)c1 [CBG, cannabigerol]	high levels of toxicity	promote cell death	–	–	–	protection from STSR induced cytotoxicity ([2]; 5 μM, 10 μM and 15 μM with STSR 75 nM, FIG. 6): did not protect; Cell Death (%) vs STSR, significance ([2]; 15 μM with STSR 75 nM, p=0.0002, FIG. 6): statistically significant cytotoxicity; protection from Aβ1-42 induced insult ([5]; 1.5 μM, 5 μM and 10 μM with Aβ1-42 5 μM, FIG. 7): did not protect; cytotoxicity with Aβ1-42 ([5]; 10 μM with Aβ1-42 5 μM, p<0.0001, FIG. 7): significant cytotoxicity
CCCCCc1cc(O)c2c(c1)OC(C)(CCC=C(C)C)C=C2 (stereo not drawn) [CBC, cannabichromene]	high levels of toxicity	promote cell death	–	–	high levels of toxicity	–
CN[C@@H]1C[C@H]2O[C@@](C)([C@@H]1OC)n1c3ccccc3c3c4c(c5c6ccccc6n2c5c31)C(=O)NC4 [STSR, Staurosporin]	–	–	–	–	–	cell death ([1]; STSR 75 nM, 72 hrs, vs vehicle control, FIG. 2): ~34%; cell death ([1]; STSR 200 nM, 72 hrs, vs vehicle control, FIG. 2): ~66%; cell death ([1]; STSR-insult alone at 75 nM, FIG. 5): ~48%
Cc1ccc(Cn2nc(C(=O)N[C@@H]3C(C)(C)[C@@H]4CC[C@@]3(C)C4)cc2-c2ccc(Cl)c(C)c2)cc1 [SRI 14528, 5-(4-chloro-3-methylphenyl)-1-[(4-methylphenyl)methyl]-N-[(1S,2S,4R)-1,3,3-trimethylbicyclo[2.2.1]heptan-2-yl]-1H-pyrazole-3-carboxamide]	–	–	–	–	–	reversal of CBGA mediated neuroprotection [6]: completely reversed
C=C(C)[C@@H]1CCC(C)=C[C@H]1c1c(O)cc(CCCCC)cc1O [CBD, cannabidiol]	high levels of toxicity	promote cell death	did not protect	statistically significant cytotoxicity	high levels of toxicity	–
CCCCCc1cc(O)c2c(c1)OC(C)(C)[C@@H]1CCC(C)=C[C@@H]21 [Δ9-THC, Δ^9-tetrahydrocannabinol]	high levels of toxicity	promote cell death	–	–	high levels of toxicity	neuronal morphology and neurite outgrowth, TuJ1 staining [3]: disrupted neuronal morphology and neurite outgrowth; neurite length [4]: significantly decreased the neurite length; CB1R expression and translocation (CB1R): did not alter the expression of CB1R
C=C(C)[C@@H]1CCC(C)=C[C@H]1c1c(O)cc(CCCCC)c(C(=O)O)c1O [CBDA, cannabidiolic acid]	high levels of toxicity	promote cell death	–	–	high levels of toxicity	–
Aβ1-42: Amyloid-beta (Aβ1-42) peptide, insult-inducing cytotoxic agent	–	–	–	–	–	BAX expression (BAX): induced upregulation; BCL2 expression (BCL2): downregulation; neurite morphology [7]: damaged neurite outgrowth; cytotoxicity ([1]; Aβ1-42 insult alone at 5 μM, 24 hrs, FIG. 7): 23-52%

From patent publication US20230381205A1, “COMPOSITIONS AND METHODS FOR TREATING NEURONAL DISORDERS WITH CANNABINOIDS” (INMED PHARMACEUTICALS INC., priority 2020, published 2023)
